According to patent publication US11214563B2 (JANSSEN PHARMACEUTICA NV, priority 2019, dated 2022):
pIC50: −log10 of the molar value.

Target: human GluN1/GluN2B NMDA receptors (Homo sapiens (Human), UniProt Q13224)
Assay: Cell-based calcium flux (FLIPR) assay on cloned human NR1/NR2B ion channels expressed in mammalian cells
Details: standard assay, glutamate ~EC40, 10 μM glycine
Procedure: Effects of Test Articles on Cloned Human NR1/NR2B Ion Channels Expressed in Mammalian Cells
NMDA receptors are ion channels that are highly permeable to Ca^2+ ions, rendering it possible to monitor NMDA receptor function using cell-based calcium flux assay. In this assay, co-agonists glutamate and glycine are added to cells heterologously expressing human GluN1/GluN2B NMDA receptors to initiate cellular Ca^2+ influx. The time course of the changes in intracellular calcium is measured using a fluorescent dye and a FLIPR (Fluorometric Imaging Plate Reader) device.
Twenty four hours before measurements, the expression of the NMDA receptors in the stable cell line is induced with Tet-On inducible system in the presence of a non-selective NMDA receptor blocker. On the day of the experiment, cell culture media is carefully washed and the cells are loaded with Calcium 5 Dye Kit (Molecular Devices) in dye loading buffer containing 137 mM NaCl, 4 mM KCl, 2 mM CaCl2), 0.5 mM MgCl2(standard assay) or 1.5 mM MgCl2 (HTS assay), 10 mM HEPES and 5 mM D-glucose; pH 7.4. After 1 h incubation at the room temperature, the dye is washed away with the assay buffer (137 mM NaCl (standard assay) or 150 mM (HTS assay), 4 mM KCl (standard assay) or 3 mM (HTS assay), 2 mM CaCl2), 0.01 mM EDTA, 10 mM HEPES and 5 mM D-glucose; pH 7.4) In the FLIPR TETRA reader, various concentrations of the test compounds are added to the cells for 5 min while fluorescence is monitored to detect potential agonist activity. Next, co-agonists, glutamate and glycine are added for another 5 minutes. The concentration of glutamate corresponding to ˜EC40 (standard assay) or EC40 (HTS assay) is used to maximize the assay's signal window and ability to detect NMDA receptor antagonists and negative allosteric modulators. A saturating concentration (10 μM) of glycine is also present in the assay. A non-selective NMDA receptor antagonist, (+)MK-801 is used as a positive control for antagonist activity. The fluorescent signal in the presence of test compounds is quantified and normalized to the signal defined by the appropriate control wells.

Chain of human GluN1/GluN2B NMDA receptors (Q13224 27-1484, other chains not shown): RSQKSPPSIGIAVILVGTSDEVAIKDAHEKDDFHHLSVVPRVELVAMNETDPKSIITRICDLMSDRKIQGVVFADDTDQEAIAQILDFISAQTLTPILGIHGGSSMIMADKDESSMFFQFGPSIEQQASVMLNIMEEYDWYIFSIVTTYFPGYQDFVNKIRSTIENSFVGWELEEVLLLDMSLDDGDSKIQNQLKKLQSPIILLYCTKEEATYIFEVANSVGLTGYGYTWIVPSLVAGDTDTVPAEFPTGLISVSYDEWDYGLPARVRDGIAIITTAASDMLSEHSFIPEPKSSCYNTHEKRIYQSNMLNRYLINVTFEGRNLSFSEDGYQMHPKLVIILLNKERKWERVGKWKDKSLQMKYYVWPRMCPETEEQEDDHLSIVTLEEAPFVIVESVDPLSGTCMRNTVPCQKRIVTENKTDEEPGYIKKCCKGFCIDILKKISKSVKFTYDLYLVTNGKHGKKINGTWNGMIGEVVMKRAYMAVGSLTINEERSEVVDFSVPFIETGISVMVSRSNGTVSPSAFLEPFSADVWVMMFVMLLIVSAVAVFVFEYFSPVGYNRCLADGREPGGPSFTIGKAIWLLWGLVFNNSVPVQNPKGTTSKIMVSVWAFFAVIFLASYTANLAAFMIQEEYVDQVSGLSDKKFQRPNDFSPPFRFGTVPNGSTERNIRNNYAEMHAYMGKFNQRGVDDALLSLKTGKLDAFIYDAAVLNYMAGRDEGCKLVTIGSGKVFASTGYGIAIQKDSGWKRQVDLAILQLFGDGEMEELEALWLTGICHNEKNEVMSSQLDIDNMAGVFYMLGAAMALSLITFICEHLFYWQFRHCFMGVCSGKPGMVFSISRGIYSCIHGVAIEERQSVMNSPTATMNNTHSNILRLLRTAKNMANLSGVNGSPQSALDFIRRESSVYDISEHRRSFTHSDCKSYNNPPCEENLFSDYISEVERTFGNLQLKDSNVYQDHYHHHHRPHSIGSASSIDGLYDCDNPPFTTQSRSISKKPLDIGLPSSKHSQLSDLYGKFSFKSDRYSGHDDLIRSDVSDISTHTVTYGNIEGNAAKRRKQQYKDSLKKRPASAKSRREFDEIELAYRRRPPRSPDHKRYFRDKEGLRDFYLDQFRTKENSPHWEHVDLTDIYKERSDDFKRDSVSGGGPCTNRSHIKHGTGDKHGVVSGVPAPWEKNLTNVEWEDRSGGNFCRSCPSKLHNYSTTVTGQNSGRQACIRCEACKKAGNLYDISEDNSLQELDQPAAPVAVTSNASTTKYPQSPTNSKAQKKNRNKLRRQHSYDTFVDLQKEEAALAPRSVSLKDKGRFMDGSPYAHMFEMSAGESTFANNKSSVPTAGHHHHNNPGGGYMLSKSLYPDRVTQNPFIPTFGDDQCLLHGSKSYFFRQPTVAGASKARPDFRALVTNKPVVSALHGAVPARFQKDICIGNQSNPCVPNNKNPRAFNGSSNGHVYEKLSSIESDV

Row | pIC50 | Compound
1 | 6.23 | COc1ccc(-c2cnc3cnn(CC(=O)N(C)C)c3n2)cc1Cl [Example 9, 2-[6-(3-Chloro-4-methoxy-phenyl)pyrazolo[3,4-b]pyrazin-1-yl]-N,N-dimethyl-acetamide]
2 | 6.84 | CN(C)C(=O)Cn1ncc2ncc(-c3ccc(F)c(C(C)(F)F)c3)nc21 [Example 13, 2-[6-[3-(1,1-Difluoroethyl)-4-fluoro-phenyl]pyrazolo[3,4-b]pyrazin-1-yl]-N,N-dimethyl-acetamide]
3 | 6.83 | CN(C)C(=O)Cn1ncc2ncc(-c3ccc(Cl)c(C(C)(F)F)c3)nc21 [Example 14, 2-[6-[4-Chloro-3-(1,1-difluoroethyl)phenyl]pyrazolo[3,4-b]pyrazin-1-yl]-N,N-dimethyl-acetamide]
4 | 6.57 | CN(C)C(=O)Cn1ncc2ncc(-c3ccc(Cl)c(C(F)(F)F)c3)nc21 [Example 15, 2-[6-[4-Chloro-3-(trifluoromethyl)phenyl]pyrazolo[3,4-b]pyrazin-1-yl]-N,N-dimethyl-acetamide]
5 | 6.07 | CN(C)C(=O)Cn1ncc2ncc(-c3ccc(OC(F)F)c(F)c3)nc21 [Example 17, 2-[6-[4-(Difluoromethoxy)-3-fluoro-phenyl]pyrazolo[3,4-b]pyrazin-1-yl]-N,N-dimethyl-acetamide]
6 | 5.98 | CN(C)C(=O)Cn1ncc2ncc(-c3ccc(OC(F)(F)F)c(Cl)c3)nc21 [Example 19, 2-[6-[3-Chloro-4-(trifluoromethoxy)phenyl]pyrazolo[3,4-b]pyrazin-1-yl]-N,N-dimethyl-acetamide]
7 | 7.47 | Cc1c(F)ccc(-c2cnc3cnn(CC(=O)N(C)C)c3n2)c1F [Example 21, 2-[6-(2,4-Difluoro-3-methyl-phenyl)pyrazolo[3,4-b]pyrazin-1-yl]-N,N-dimethyl-acetamide]
8 | 6.02 | CN(C)C(=O)Cn1ncc2ncc(-c3ccc(F)c(F)c3F)nc21 [Example 23, N,N-Dimethyl-2-[6-(2,3,4-trifluorophenyl)pyrazolo[3,4-b]pyrazin-1-yl]acetamide]
9 | 6.85 | CC(F)(F)c1cc(-c2cnc3cnn(CC(=O)N4CCC4)c3n2)ccc1Cl [Example 26, 1-(Azetidin-1-yl)-2-[6-[4-chloro-3-(1,1-difluoroethyl)phenyl]pyrazolo[3,4-b]pyrazin-1-yl]ethanone]
10 | 7.16 | O=C(Cn1ncc2ncc(-c3ccc(Cl)c(OC(F)F)c3)nc21)N1CCC1 [Example 29, 1-(Azetidin-1-yl)-2-[6-[4-chloro-3-(difluoromethoxy)phenyl]pyrazolo[3,4-b]pyrazin-1-yl]ethanone]
11 | 6.71 | CC1CN(C(=O)Cn2nc(F)c3ncc(-c4ccc(F)c(C(F)F)c4)nc32)C1 [Example 31, 2-[6-[3-(Difluoromethyl)-4-fluoro-phenyl]-3-fluoro-pyrazolo[3,4-b]pyrazin-1-yl]-1-(3-methylazetidin-1-yl)ethanone]
12 | 7.11 | O=C(Cn1nc(F)c2ncc(-c3ccc(F)c(C(F)F)c3)nc21)N1CC(F)C1 [Example 33, 2-[6-[3-(Difluoromethyl)-4-fluoro-phenyl]-3-fluoro-pyrazolo[3,4-b]pyrazin-1-yl]-1-(3-fluoroazetidin-1-yl)ethanone]
13 | 6.39 | CC1CN(C(=O)Cn2ncc3ncc(-c4ccc(Cl)c(C(C)(F)F)c4)nc32)C1 [Example 34, 2-[6-[4-Chloro-3-(1,1-difluoroethyl)phenyl]pyrazolo[3,4-b]pyrazin-1-yl]-1-(3-methylazetidin-1-yl)ethanone]
14 | 6.67 | CC(F)(F)c1cc(-c2cnc3cnn(CC(=O)N4CC(F)C4)c3n2)ccc1Cl [Example 35, 2-[6-[4-Chloro-3-(1,1-difluoroethyl)phenyl]pyrazolo[3,4-b]pyrazin-1-yl]-1-(3-fluoroazetidin-1-yl)ethanone]

Row | Compound | pIC50
15 | Cc1cc(-c2cnc3cnn(CC(=O)N(C)C)c3n2)ccc1Cl [Example 7] | 6.93
16 | Cc1cc(-c2cnc3cnn(CC(=O)N(C)C)c3n2)ccc1Cl [Example 8] | 6.87
